Data taken from the supplement of paper PMC11821682.

What was measured:
[1] = tested on: Danio rerio embryo; assay: BMC10 any morphological effect or mortality at 120 hpf; higher = less toxic
Protocol: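 ZBEscreen: dechorionated Tropical 5D zebrafish embryos were exposed from 4 hpf in 96-well plates (1% DMSO, 28 °C). All compounds were first tested at 100 µM; hits were retested at 0.005-100 µM. Morphology and mortality were scored at 120 hpf and fitted as BMC10 (3-parameter log-logistic, extra risk). The embryonic photomotor response at 24 hpf and the larval photomotor response at 120 hpf are given as lowest effect levels (K-S test, p<0.01). NA = not significant up to 100 µM; NT = not tested.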

[2] = tested on: HL-60; assay: Cell Health Index (toxicity pseudo-probability over dose series) (index 0-1); higher = more cytotoxic / cell stress;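 also: HL-60 cells exposed 4 h at 37 °C to ten threefold dilutions spanning 5 nM to 100 µM, multiparametric flow cytometry features scored by machine-learning classification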

SMILES	BMC10 any morphological effect or mortality [1]	Cell Health Index [2]
COC(=O)c1cc(O)c(O)c(O)c1 [Methyl gallate]	> 100 µM	0.351
O=c1c(O)cc([C@H]2Oc3cc(O)cc(O)c3C[C@H]2O)cc2c([C@H]3Oc4cc(O)cc(O)c4C[C@H]3O)cc(O)c(O)c12 [Theaflavin]	> 100 µM	0.752
OC[C@H]1O[C@@H](Oc2cc(O)cc(C=Cc3ccc(O)cc3)c2)[C@H](O)[C@@H](O)[C@@H]1O [Polydatin]	> 100 µM	0.106
NC(=O)c1nc(F)c[nH]c1=O [Favipiravir]	> 100 µM	0.248
Nc1nc2c(ncn2COCCO)c(=O)[nH]1 [Acyclovir]	> 100 µM	0.214
O=C1O[C@@H]2[C@H]3OC(=O)c4cc(O)c(O)c(O)c4-c4c(cc(O)c(O)c4O)C(=O)OC[C@@H]2OC(OC(=O)c2cc(O)c(O)c(O)c2)[C@H]3OC(=O)c2cc(O)c(O)c3c2C2C1=CC(=O)C(O)(O3)C2(O)O (some centres not stated) [Geraniin]	> 100 µM	0.824
O=c1[nH]cc(F)c(=O)[nH]1 [5-Fluorouracil]	> 100 µM	0.159
O=CC1OC(=O)c2cc(O)c(O)c(O)c2-c2c(cc(O)c(O)c2O)C(=O)OC1C1OC(=O)c2cc(O)c(O)c(O)c2-c2c(O)c(O)c3oc(=O)c4c(c(O)c(O)c5oc(=O)c2c3c54)-c2c(cc(O)c(O)c2O)C(=O)OCC1O (configuration not stated) [Punicalagin]	> 100 µM	0.837
Cc1cn([C@H]2C=C[C@@H](CO)O2)c(=O)[nH]c1=O [Stavudine]	> 100 µM	0.204
CCCn1c(=O)[nH]c2nc(-c3ccc(S(=O)(=O)N4CCN(c5ccc(Cl)cc5)CC4)cc3)[nH]c2c1=O [PSB-603]	> 100 µM	0.489
CC(=O)OCC(CCn1cnc2cnc(N)nc21)COC(C)=O [Famciclovir]	> 100 µM	0.254
O=C1CCC[C@@H]2[C@H]3CCC[N+]4([O-])CCC[C@@H](CN12)[C@@H]34 (some centres not stated) [Oxymatrine]	> 100 µM	0.187
O=c1c(O[C@@H]2O[C@H](CO)[C@@H](O)[C@H](O)[C@H]2O)c(-c2ccc(O)c(O)c2)oc2cc(O)cc(O)c12 [Isoquercetin]	> 100 µM	0.31
O=C(CCc1ccc(O)cc1)c1c(O)cc(O[C@@H]2O[C@H](CO)[C@@H](O)[C@H](O)[C@H]2O)cc1O [Trilobatin]	> 100 µM	0.183
[Cl-].c1c2c(cc3c1OCO3)-c1cc3ccc4c(c3c[n+]1CC2)OCO4 [Coptisine]	> 100 µM	0.777
CC(C)CN(C[C@@H](OP(=O)([O-])[O-])[C@H](Cc1ccccc1)NC(=O)O[C@H]1CCOC1)S(=O)(=O)c1ccc(N)cc1.[Ca+2] [Fosamprenavir]	> 100 µM	0.242
Cc1cc(O)c2c(c1)C(=O)c1cccc(O)c1C2=O [Chrysophanol]	> 100 µM	0.288
O=c1cc(-c2ccc(O)cc2)oc2cc(O)c(O)c(O)c12 [Scutellarein]	> 100 µM	0.815
CC(C)Cn1cnc2c(N)nc3ccccc3c21 [Imiquimod]	> 100 µM	0.269
C[C@H]1[C@H](C)CC[C@]2(C(=O)O)CC[C@]3(C)C(=CC[C@@H]4[C@@]5(C)C[C@@H](O)[C@H](O)[C@@](C)(CO)[C@@H]5CC[C@]43C)[C@H]12 [Asiatic acid]	> 100 µM	0.478
O=C(O[C@@H]1Cc2c(O)cc(O)cc2O[C@@H]1c1cc(O)c(O)c(O)c1)c1cc(O)c(O)c(O)c1 [(-)-Epigallocatechin gallate]	> 100 µM	0.854
C[C@@H]1O[C@@H](OC[C@H]2O[C@@H](Oc3c(-c4ccc(O)c(O)c4)oc4cc(O)cc(O)c4c3=O)[C@H](O)[C@@H](O)[C@@H]2O)[C@H](O)[C@H](O)[C@H]1O.O.O.O [Rutin]	> 100 µM	0.252
CC(C)=CCC[C@](C)(O[C@@H]1O[C@H](CO[C@@H]2O[C@H](CO)[C@@H](O)[C@H](O)[C@H]2O)[C@@H](O)[C@H](O)[C@H]1O)[C@H]1CC[C@]2(C)[C@@H]1[C@H](O)C[C@@H]1[C@@]3(C)CC[C@H](O[C@@H]4O[C@H](CO)[C@@H](O)[C@H](O)[C@H]4O[C@@H]4O[C@H](CO)[C@@H](O)[C@H](O)[C@H]4O)C(C)(C)[C@@H]3CC[C@]12C [Ginsenoside Rb1]	> 100 µM	0.145

SMILES	BMC10 any morphological effect or mortality [1]	Cell Health Index [2]
CCCCc1nc(Cl)c(C(=O)O)n1Cc1ccc(-c2ccccc2-c2nnn[nH]2)cc1 [Losartan carboxylic acid]	> 100 µM	0.221
CCCCCCCCCCCCCCCC(=O)NCCO [Palmitoyl ethanolamide]	> 100 µM	0.283
CCCCN1C[C@H](O)[C@@H](O)[C@H](O)[C@H]1CO.Cl [Miglustat]	> 100 µM	0.184
COc1cc2c(cc1OC)CN(CCc1ccc(NC(=O)c3cccc4c(=O)c5cccc(OC)c5[nH]c34)cc1)CC2 [Elacridar]	> 100 µM	0.592
O=c1c(-c2ccc(O)cc2)coc2cc(O[C@@H]3O[C@H](CO)[C@@H](O)[C@H](O)[C@H]3O)ccc12 [Daidzin]	> 100 µM	0.169
CC(=O)O[C@H]1CC(=O)OC(C)(C)[C@@H]2CC(=O)[C@]3(C)[C@H](CC[C@@]4(C)[C@H](c5ccoc5)OC(=O)[C@H]5O[C@]543)[C@@]12C [Nomilin]	> 100 µM	0.278
Cc1cccc(C)c1OCC(=O)N[C@@H](Cc1ccccc1)[C@@H](O)C[C@H](Cc1ccccc1)NC(=O)[C@H](C(C)C)N1CCCNC1=O [Lopinavir]	> 100 µM	0.752
C[C@H](Cn1cnc2c(N)ncnc21)OCP(=O)(O)O [Tenofovir]	> 100 µM	0.229
C=C(C)[C@@H]1CC[C@]2(C=O)CC[C@]3(C)[C@H](CC[C@@H]4[C@@]5(C)CC[C@H](O)C(C)(C)[C@@H]5CC[C@]43C)[C@@H]12 [Betulinic aldehyde]	> 100 µM	0.515
N=C(N)NCCC[C@H](NC(=O)c1ccc2ccccc2c1O)C(=O)N1CCC[C@H]1C(N)=O.O=C(O)C(F)(F)F [APC 366]	> 100 µM	0.223
Nc1ccn([C@@H]2O[C@H](CO)[C@@H](O)[C@@H]2O)c(=O)n1 [Cytarabine]	> 100 µM	0.203
N[C@H]1CONC1=O [L-Cycloserine]	> 100 µM	0.19
Oc1cc(O)cc(/C=C/c2ccc(O)cc2O)c1 [Oxyresveratrol]	> 100 µM	0.673
CCc1cccc(CC)c1NC(=O)N1Cc2[nH]nc(NC(=O)c3ccc(N4CCN(C)CC4)cc3)c2C1	> 100 µM	0.634
NC(=O)c1ncn([C@@H]2O[C@H](CO)[C@@H](O)[C@H]2O)c1O [Mizoribine]	> 100 µM	0.202
CO[C@@H]1[C@H](OC(=O)/C=C/C=C/C=C/C=C/C(=O)O)CC[C@]2(CO2)[C@H]1[C@@]1(C)O[C@@H]1CC=C(C)C [Fumagillin]	> 100 µM	0.187
COC(=O)CC[C@H](NC(=O)[C@H](C)NC(=O)OCc1ccccc1)C(=O)N[C@H](C(=O)N[C@@H](CC(=O)OC)C(=O)CF)C(C)C [Z-AEVD-FMK]	> 100 µM	0.179
Nc1nccc2c1ncn2[C@@H]1O[C@H](CO)[C@@H](O)[C@H]1O [3-Deazaadenosine]	> 100 µM	0.318
Nc1n[nH]c2nnc(-c3c(-c4ccccc4)nn4ccccc34)cc12	> 100 µM	0.299
CC1(C)CC[C@]2(C(=O)O[C@@H]3O[C@H](CO)[C@@H](O)[C@H](O)[C@H]3O)CC[C@]3(C)C(=CC[C@@H]4[C@@]5(C)CC[C@H](O[C@@H]6O[C@H](C(=O)O)[C@@H](O)[C@H](O)[C@H]6O[C@@H]6O[C@H](CO)[C@@H](O)[C@H](O)[C@H]6O)C(C)(C)[C@@H]5CC[C@]43C)[C@@H]2C1 [Ginsenoside Ro]	> 100 µM	0.229
O=C([O-])P(=O)([O-])[O-].[Na+].[Na+].[Na+] [Foscarnet]	> 100 µM	0.13
O=c1cc(-c2ccc(O)c(O)c2)oc2cc(O[C@@H]3O[C@H](CO)[C@@H](O)[C@H](O)[C@H]3O)cc(O)c12 [Luteoloside]	> 100 µM	0.345
CC(C)(C)[C@@H]1NC(=O)O[C@@H]2CCC[C@H]2OC/C=C/C(F)(F)c2nc3ccccc3nc2O[C@@H]2C[C@@H](C(=O)N[C@]3(C(=O)NS(=O)(=O)C4(C)CC4)C[C@H]3C(F)F)N(C2)C1=O [Glecaprevir]	> 100 µM	0.369
